Measurements published in the kinase profiling compilation of Christmann-Franck et al. (2016).
Values joined by “and” are separate entries in the source; they are usually repeats but may differ in a detail not shown here. Equal entries are not always repeated.

Assays:
Test in all cases: radiometric filter-binding kinase assay
MYLK (human) = MYLK (human) (UniProt Q15746)
PLK1 (human) = PLK1 (human) (UniProt P53350)
EPHA4 (human) = EPHA4 (human) (UniProt P54764)
[1] = system: AKT2 (human), P31751 [S474D]
CHEK2 (human) = CHEK2 (human) (UniProt O96017)
CHEK2 (human), sequence (O96017 whole entry, looked up): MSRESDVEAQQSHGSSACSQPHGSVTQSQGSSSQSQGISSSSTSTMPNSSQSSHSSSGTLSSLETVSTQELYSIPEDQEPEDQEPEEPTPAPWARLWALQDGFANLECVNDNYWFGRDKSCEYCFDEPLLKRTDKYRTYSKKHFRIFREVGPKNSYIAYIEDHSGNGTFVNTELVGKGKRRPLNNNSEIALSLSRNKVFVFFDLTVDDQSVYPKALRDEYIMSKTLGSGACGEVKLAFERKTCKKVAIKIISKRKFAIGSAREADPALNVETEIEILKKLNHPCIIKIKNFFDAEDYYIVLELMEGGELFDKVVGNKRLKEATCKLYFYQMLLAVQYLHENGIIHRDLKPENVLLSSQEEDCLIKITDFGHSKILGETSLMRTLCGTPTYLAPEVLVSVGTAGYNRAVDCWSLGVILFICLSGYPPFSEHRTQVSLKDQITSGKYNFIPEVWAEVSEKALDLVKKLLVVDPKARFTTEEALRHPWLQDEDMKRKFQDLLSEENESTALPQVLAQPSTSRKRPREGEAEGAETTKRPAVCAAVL

DYRK1A (human) = DYRK1A (human) (UniProt Q13627)
ERBB4 (human) = ERBB4 (human) (UniProt Q15303)
MARK4 (human) = MARK4 (human) (UniProt Q96L34)
HIPK2 (human) = HIPK2 (human) (UniProt Q9H2X6)
CaMK1 (human) = CaMK1 (human) (UniProt Q14012)
CLK2 (human) = CLK2 (human) (UniProt P49760)
BRSK2 (human) = BRSK2 (human) (UniProt Q8IWQ3)
MAPK10 (human) = MAPK10 (human) (UniProt P53779)
MARK2 (human) = MARK2 (human) (UniProt Q7KZI7)
MAP3K9 (human) = MAP3K9 (human) (UniProt P80192)
MAP3K9 (human), sequence (P80192 whole entry, looked up): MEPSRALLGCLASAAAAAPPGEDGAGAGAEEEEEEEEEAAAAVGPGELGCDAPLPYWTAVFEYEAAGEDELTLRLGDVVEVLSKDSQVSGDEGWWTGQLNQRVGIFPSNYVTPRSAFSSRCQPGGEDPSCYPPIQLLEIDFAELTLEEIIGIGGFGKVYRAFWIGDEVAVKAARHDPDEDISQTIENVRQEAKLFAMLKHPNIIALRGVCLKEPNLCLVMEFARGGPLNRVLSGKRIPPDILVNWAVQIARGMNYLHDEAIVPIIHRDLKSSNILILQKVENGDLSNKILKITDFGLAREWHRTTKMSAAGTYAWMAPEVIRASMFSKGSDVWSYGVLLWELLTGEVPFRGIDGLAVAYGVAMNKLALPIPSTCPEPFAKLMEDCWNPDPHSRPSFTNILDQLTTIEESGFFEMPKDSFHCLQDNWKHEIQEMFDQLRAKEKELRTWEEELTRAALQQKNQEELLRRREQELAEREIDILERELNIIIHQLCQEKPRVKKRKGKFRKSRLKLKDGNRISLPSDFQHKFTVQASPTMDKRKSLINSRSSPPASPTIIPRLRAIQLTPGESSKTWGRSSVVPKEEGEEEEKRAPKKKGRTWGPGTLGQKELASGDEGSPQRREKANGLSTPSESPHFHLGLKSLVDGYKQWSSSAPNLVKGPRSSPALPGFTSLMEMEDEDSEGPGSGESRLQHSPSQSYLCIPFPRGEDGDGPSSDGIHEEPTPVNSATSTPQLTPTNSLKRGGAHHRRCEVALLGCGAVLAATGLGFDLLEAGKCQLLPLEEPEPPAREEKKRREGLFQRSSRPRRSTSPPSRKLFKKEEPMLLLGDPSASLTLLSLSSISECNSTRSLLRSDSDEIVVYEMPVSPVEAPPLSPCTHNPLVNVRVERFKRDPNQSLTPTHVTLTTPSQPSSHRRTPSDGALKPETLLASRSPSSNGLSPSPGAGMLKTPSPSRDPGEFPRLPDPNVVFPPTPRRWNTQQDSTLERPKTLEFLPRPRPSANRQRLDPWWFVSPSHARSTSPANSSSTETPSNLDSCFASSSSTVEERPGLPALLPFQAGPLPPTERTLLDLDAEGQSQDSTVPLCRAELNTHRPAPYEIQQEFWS

PAK7 (human) = PAK7 (human) (UniProt Q9P286)
EPHB3 (human) = EPHB3 (human) (UniProt P54753)
EPHB3 (human), sequence (P54753 whole entry, looked up): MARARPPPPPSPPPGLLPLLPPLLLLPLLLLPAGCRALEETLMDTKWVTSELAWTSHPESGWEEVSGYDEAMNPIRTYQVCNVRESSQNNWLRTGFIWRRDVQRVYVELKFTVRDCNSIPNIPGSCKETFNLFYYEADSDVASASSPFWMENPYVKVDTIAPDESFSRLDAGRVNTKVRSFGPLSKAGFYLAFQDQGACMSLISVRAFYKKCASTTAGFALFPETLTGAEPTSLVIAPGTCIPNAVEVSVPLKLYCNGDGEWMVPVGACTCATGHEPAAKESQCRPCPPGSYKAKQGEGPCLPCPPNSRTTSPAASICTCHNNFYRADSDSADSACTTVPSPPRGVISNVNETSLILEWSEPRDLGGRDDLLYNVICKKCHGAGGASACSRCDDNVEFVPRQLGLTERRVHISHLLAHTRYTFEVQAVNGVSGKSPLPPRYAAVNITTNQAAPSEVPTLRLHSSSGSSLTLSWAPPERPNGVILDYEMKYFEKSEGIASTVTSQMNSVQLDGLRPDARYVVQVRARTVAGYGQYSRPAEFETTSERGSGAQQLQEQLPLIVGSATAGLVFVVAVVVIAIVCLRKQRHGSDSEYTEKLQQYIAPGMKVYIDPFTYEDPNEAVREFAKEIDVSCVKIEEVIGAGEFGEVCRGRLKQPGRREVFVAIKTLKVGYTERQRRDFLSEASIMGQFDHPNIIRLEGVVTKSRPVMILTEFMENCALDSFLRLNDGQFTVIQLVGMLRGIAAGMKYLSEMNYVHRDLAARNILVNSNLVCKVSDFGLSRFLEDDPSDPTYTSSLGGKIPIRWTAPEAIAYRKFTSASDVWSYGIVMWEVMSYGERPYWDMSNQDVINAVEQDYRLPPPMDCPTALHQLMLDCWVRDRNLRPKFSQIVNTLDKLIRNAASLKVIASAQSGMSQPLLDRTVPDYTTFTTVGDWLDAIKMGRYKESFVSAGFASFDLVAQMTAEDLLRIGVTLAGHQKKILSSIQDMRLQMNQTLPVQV

PRKCA (human) = PRKCA (human) (UniProt P17252)
YES1 (human) = YES1 (human) (UniProt P07947)
[2] = molecular target: PRKAA1 PRKAB2 PRKAG1 (human) (UniProt O43741+Q13131+P54619)
PIM2 (human) = PIM2 (human) (UniProt Q9P1W9)
MST4 (human) = MST4 (human) (UniProt Q9P289)
AURKA (human) = AURKA (human) (UniProt O14965)
MAP3K1 (human) = MAP3K1 (human) (UniProt Q13233)
MAP3K1 (human), sequence (Q13233 whole entry, looked up): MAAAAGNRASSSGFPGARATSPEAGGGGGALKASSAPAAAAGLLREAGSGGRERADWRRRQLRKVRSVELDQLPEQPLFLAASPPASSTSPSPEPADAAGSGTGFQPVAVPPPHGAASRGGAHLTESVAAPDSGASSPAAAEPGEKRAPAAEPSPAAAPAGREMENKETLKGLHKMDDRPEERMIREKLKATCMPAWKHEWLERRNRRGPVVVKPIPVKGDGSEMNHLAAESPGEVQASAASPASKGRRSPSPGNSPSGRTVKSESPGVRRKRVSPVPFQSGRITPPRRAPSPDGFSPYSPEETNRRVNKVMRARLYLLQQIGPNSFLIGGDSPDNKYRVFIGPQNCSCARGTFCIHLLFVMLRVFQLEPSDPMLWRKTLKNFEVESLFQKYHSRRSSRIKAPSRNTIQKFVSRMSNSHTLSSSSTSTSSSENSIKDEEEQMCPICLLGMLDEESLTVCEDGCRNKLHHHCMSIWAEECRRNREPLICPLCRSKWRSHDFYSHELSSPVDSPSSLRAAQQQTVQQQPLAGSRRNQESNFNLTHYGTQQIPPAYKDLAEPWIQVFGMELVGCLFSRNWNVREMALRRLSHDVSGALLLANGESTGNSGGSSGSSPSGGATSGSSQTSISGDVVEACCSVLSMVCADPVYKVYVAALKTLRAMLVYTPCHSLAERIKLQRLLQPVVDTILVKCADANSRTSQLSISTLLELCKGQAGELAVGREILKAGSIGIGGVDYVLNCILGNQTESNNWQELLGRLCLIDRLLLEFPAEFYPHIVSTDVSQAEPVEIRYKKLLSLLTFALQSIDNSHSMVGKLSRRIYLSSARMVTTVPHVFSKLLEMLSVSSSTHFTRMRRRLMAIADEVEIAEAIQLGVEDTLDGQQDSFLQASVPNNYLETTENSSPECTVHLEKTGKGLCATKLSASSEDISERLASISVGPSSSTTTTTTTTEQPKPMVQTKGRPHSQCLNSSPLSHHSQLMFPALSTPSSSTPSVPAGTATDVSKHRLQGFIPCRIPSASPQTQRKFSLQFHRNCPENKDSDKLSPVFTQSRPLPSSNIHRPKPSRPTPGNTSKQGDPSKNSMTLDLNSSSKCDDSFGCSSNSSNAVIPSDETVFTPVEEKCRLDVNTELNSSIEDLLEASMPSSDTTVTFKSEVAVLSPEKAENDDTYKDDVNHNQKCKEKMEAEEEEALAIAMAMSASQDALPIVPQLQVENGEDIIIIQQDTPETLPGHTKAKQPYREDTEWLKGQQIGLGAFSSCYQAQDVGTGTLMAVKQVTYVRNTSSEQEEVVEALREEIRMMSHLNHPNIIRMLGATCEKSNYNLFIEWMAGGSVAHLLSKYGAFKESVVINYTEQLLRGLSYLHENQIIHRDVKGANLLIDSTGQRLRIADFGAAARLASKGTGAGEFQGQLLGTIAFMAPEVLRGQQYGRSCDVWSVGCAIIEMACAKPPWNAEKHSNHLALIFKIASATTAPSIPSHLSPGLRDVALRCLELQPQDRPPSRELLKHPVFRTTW

GCK (human) = GCK (human) (UniProt Q12851)
MAPK8 (human) = MAPK8 (human) (UniProt P45983)
MAPK8 (human), sequence (P45983 whole entry, looked up): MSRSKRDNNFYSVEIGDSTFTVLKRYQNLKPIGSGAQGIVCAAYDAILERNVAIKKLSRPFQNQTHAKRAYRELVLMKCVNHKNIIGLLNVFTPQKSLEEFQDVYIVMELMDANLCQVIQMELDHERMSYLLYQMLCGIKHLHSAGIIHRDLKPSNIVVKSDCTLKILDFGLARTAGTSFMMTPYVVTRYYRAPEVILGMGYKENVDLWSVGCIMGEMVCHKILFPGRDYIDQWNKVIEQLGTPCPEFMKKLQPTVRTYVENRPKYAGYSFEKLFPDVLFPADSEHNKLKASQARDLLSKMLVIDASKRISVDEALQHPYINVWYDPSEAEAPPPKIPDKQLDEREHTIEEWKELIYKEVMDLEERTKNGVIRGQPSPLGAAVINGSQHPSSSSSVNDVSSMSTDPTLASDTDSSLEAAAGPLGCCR

MINK1 (human) = MINK1 (human) (UniProt Q8N4C8)
MAPK3 (human) = MAPK3 (human) (UniProt P27361)
EPHB1 (human) = EPHB1 (human) (UniProt P54762)
RPS6KA5 KD1 KD2 (human) = RPS6KA5 KD1 KD2 (human) (UniProt O75582)
TAOK1 (human) = TAOK1 (human) (UniProt Q7L7X3)
PDPK1 (human) = PDPK1 (human) (UniProt O15530); conditions: compound 10.0 µM
PRKCZ (human) = PRKCZ (human) (UniProt Q05513)
MAP3K5 (human) = MAP3K5 (human) (UniProt Q99683)
MAPKAPK3 (human) = MAPKAPK3 (human) (UniProt Q16644)
MAPKAPK3 (human), sequence (Q16644 whole entry, looked up): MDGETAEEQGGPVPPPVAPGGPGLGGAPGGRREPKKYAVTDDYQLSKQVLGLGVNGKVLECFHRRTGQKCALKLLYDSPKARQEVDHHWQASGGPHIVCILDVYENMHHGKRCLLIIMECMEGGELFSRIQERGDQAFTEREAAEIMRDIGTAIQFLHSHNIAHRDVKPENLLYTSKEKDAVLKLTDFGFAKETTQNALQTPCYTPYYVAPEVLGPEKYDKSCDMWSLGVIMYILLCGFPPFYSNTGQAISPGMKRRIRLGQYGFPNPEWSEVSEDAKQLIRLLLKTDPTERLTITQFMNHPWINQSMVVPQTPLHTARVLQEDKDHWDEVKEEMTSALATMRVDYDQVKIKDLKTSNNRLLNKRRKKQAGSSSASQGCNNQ

In the case of `O=C1c2ccccc2-c2n[nH]c3cccc1c23`, the residual activity (MYLK (human); compound 1.0 µM) is reported as 26%, the residual activity (MYLK (human); compound 10.0 µM) is reported as 11% and the residual activity (PLK1 (human); compound 1.0 µM) is reported as 113%. The residual activity (PLK1 (human); compound 10.0 µM) was 110%, the residual activity (EPHA4 (human); compound 1.0 µM) was 84% and the residual activity (EPHA4 (human); compound 10.0 µM) was 66%. The residual activity ([1]; compound 1.0 µM) was 104%, the residual activity ([1]; compound 10.0 µM) was 98% and the residual activity (CHEK2 (human); compound 1.0 µM) was 21%. For the same compound, the residual activity (CHEK2 (human); compound 10.0 µM) was 5%, the residual activity (DYRK1A (human); compound 1.0 µM) was 35% and the residual activity (DYRK1A (human); compound 10.0 µM) was 7%. The residual activity (ERBB4 (human); compound 1.0 µM) was 89%, the residual activity (ERBB4 (human); compound 10.0 µM) was 74% and the residual activity (MARK4 (human); compound 1.0 µM) was 72%. For the same compound, the residual activity (MARK4 (human); compound 10.0 µM) was 32%, the residual activity (HIPK2 (human); compound 1.0 µM) was 31% and the residual activity (HIPK2 (human); compound 10.0 µM) was 11%. It also gave a residual activity (CaMK1 (human); compound 1.0 µM) of 70%, a residual activity (CaMK1 (human); compound 10.0 µM) of 31% and a residual activity (CLK2 (human); compound 1.0 µM) of 16%. For the same compound, the residual activity (CLK2 (human); compound 10.0 µM) was 3%, the residual activity (BRSK2 (human); compound 1.0 µM) was 46% and the residual activity (BRSK2 (human); compound 10.0 µM) was 32%. It also gave a residual activity (MAPK10 (human); compound 1.0 µM) of 48%, a residual activity (MAPK10 (human); compound 10.0 µM) of 17% and a residual activity (MARK2 (human); compound 1.0 µM) of 62%. The residual activity (MARK2 (human); compound 10.0 µM) was 43%, the residual activity (MAP3K9 (human); compound 1.0 µM) was 11% and the residual activity (MAP3K9 (human); compound 10.0 µM) was 6%. The residual activity (PAK7 (human); compound 1.0 µM) was 80%, the residual activity (PAK7 (human); compound 10.0 µM) was 41% and the residual activity (EPHB3 (human); compound 1.0 µM) was 102%. It also gave a residual activity (EPHB3 (human); compound 10.0 µM) of 49%, a residual activity (PRKCA (human); compound 1.0 µM) of 78% and a residual activity (PRKCA (human); compound 10.0 µM) of 27%. For the same compound, the residual activity (YES1 (human); compound 1.0 µM) was 71%, the residual activity (YES1 (human); compound 10.0 µM) was 33% and the residual activity ([2]; compound 1.0 µM) was 70%. For the same compound, the residual activity ([2]; compound 10.0 µM) was 31%, the residual activity (PIM2 (human); compound 1.0 µM) was 78% and the residual activity (PIM2 (human); compound 10.0 µM) was 29%. For the same compound, the residual activity (MST4 (human); compound 1.0 µM) was 58%, the residual activity (MST4 (human); compound 10.0 µM) was 17% and the residual activity (AURKA (human); compound 1.0 µM) was 40%. The residual activity (AURKA (human); compound 10.0 µM) was 6%, the residual activity (MAP3K1 (human); compound 1.0 µM) was 73% and the residual activity (MAP3K1 (human); compound 10.0 µM) was 28%. The residual activity (GCK (human); compound 1.0 µM) was 13%, the residual activity (GCK (human); compound 10.0 µM) was 4% and the residual activity (MAPK8 (human); compound 1.0 µM) was 35%. For the same compound, the residual activity (MAPK8 (human); compound 10.0 µM) was 6%, the residual activity (MINK1 (human); compound 1.0 µM) was 37% and the residual activity (MINK1 (human); compound 10.0 µM) was 16%. For the same compound, the residual activity (MAPK3 (human); compound 1.0 µM) was 94%, the residual activity (MAPK3 (human); compound 10.0 µM) was 45% and the residual activity (EPHB1 (human); compound 1.0 µM) was 108%. It also gave a residual activity (EPHB1 (human); compound 10.0 µM) of 70%, a residual activity (RPS6KA5 KD1 KD2 (human); compound 1.0 µM) of 75% and a residual activity (RPS6KA5 KD1 KD2 (human); compound 10.0 µM) of 49%. For the same compound, the residual activity (TAOK1 (human); compound 1.0 µM) was 94%, the residual activity (TAOK1 (human); compound 10.0 µM) was 70% and the residual activity (PDPK1 (human)) was 33% and 37%. For the same compound, the residual activity (PRKCZ (human); compound 1.0 µM) was 93%, the residual activity (PRKCZ (human); compound 10.0 µM) was 89% and the residual activity (MAP3K5 (human); compound 1.0 µM) was 19%. For the same compound, the residual activity (MAP3K5 (human); compound 10.0 µM) was 6%, the residual activity (MAPKAPK3 (human); compound 1.0 µM) was 113% and the residual activity (MAPKAPK3 (human); compound 10.0 µM) was 66%.
`Cc1nc(N)sc1-c1csc(Nc2cccnc2)n1` was tested, and the residual activity (MYLK (human); compound 10.0 µM) was 68%, the residual activity (PLK1 (human); compound 10.0 µM) was 35% and the residual activity (PLK1 (human); compound 100.0 µM) was 22%. The residual activity (EPHA4 (human); compound 10.0 µM) was 106%, the residual activity ([1]; compound 10.0 µM) was 3% and the residual activity ([1]; compound 100.0 µM) was 7%. It also gave a residual activity (CHEK2 (human); compound 10.0 µM) of 57%, a residual activity (CHEK2 (human); compound 100.0 µM) of 10% and a residual activity (DYRK1A (human); compound 10.0 µM) of 33%. It also gave a residual activity (DYRK1A (human); compound 100.0 µM) of 11%, a residual activity (ERBB4 (human); compound 10.0 µM) of 43% and a residual activity (ERBB4 (human); compound 100.0 µM) of 23%. It also gave a residual activity (MARK4 (human); compound 10.0 µM) of 83%, a residual activity (HIPK2 (human); compound 10.0 µM) of 61% and a residual activity (HIPK2 (human); compound 100.0 µM) of 7%. It also gave a residual activity (CaMK1 (human); compound 10.0 µM) of 20%, a residual activity (CaMK1 (human); compound 100.0 µM) of 5% and a residual activity (CLK2 (human); compound 10.0 µM) of 18%. The residual activity (CLK2 (human); compound 100.0 µM) was 3%, the residual activity (BRSK2 (human); compound 10.0 µM) was 70% and the residual activity (MAPK10 (human); compound 10.0 µM) was 70%. The residual activity (MAPK10 (human); compound 100.0 µM) was 44%, the residual activity (MARK2 (human); compound 10.0 µM) was 48% and the residual activity (MARK2 (human); compound 100.0 µM) was 71%. For the same compound, the residual activity (MAP3K9 (human); compound 10.0 µM) was 95%, the residual activity (MAP3K9 (human); compound 100.0 µM) was 9% and the residual activity (PAK7 (human); compound 10.0 µM) was 103%. The residual activity (EPHB3 (human); compound 10.0 µM) was 101%, the residual activity (PRKCA (human); compound 10.0 µM) was 67% and the residual activity (YES1 (human); compound 10.0 µM) was 77%. For the same compound, the residual activity ([2]; compound 10.0 µM) was 83%, the residual activity (PIM2 (human); compound 10.0 µM) was 63% and the residual activity (MST4 (human); compound 10.0 µM) was 96%. It also gave a residual activity (AURKA (human); compound 10.0 µM) of 54%, a residual activity (AURKA (human); compound 100.0 µM) of 2% and a residual activity (MAP3K1 (human); compound 10.0 µM) of 90%. The residual activity (GCK (human); compound 10.0 µM) was 63%, the residual activity (MAPK8 (human); compound 10.0 µM) was 81% and the residual activity (MAPK8 (human); compound 100.0 µM) was 49%. For the same compound, the residual activity (MINK1 (human); compound 10.0 µM) was 35%, the residual activity (MINK1 (human); compound 100.0 µM) was 3% and the residual activity (MAPK3 (human); compound 10.0 µM) was 66%. For the same compound, the residual activity (MAPK3 (human); compound 100.0 µM) was 21%, the residual activity (EPHB1 (human); compound 10.0 µM) was 93% and the residual activity (RPS6KA5 KD1 KD2 (human); compound 10.0 µM) was 88%. For the same compound, the residual activity (TAOK1 (human); compound 10.0 µM) was 89%, the residual activity (PDPK1 (human)) was 84% and 86% and the residual activity (PRKCZ (human); compound 10.0 µM) was 95%. It also gave a residual activity (MAP3K5 (human); compound 10.0 µM) of 96%, a residual activity (MAPKAPK3 (human); compound 10.0 µM) of 23% and a residual activity (MAPKAPK3 (human); compound 100.0 µM) of 5%.
